According to patent publication US20240228474A1, “ANTIBACTERIAL COMPOUND” (DISCUVA LIMITED, priority 2021, published 2024):
Values after ≈ are worked out from the molar mass of the structure shown.

Assays:
[1] = system: E. coli BAA-2469 (NDM-1 positive); assay: Murine bacteraemia / bloodstream infection proof-of-concept study, IV bolus; assay type: in vivo
Method: Compound (I) and comparative compound (III) were evaluated in proof-of-concept studies in murine models for the treatment of a respiratory infection with Gram-negative bacteria of the order Enterobacterales, a bacteraemia or bloodstream infection with Gram-negative bacteria of the order Enterobacterales, and a urinary tract infection with Gram-negative bacteria of the order Enterobacterales. Each dot, triangle or square indicator represents a single mouse. LOD refers to the limit of detection of the bacteria. […] Each of the proof-of-concept studies was carried out separately. By vehicle is meant pharmaceutically acceptable carrier or excipient.
For the proof-of-concept study for the treatment of a bacteraemia or bloodstream infection with Gram-negative bacteria of the order Enterobacterales, CD-1 mice were infected with human urine isolate E. coli BAA-2469 (NDM-1 positive). One hour after infection (‘pre-treatment’ in FIG. 3), a vehicle (20% hydroxypropyl β cyclodextrin) containing no compound (I) or comparative compound (III), or a vehicle (20% hydroxypropyl β cyclodextrin) containing compound (I) or comparative compound (III), was administered by as a single dose IV bolus at 20 mg/kg.

[2] = system: Proteus spp. (10 isolates); assay: MIC by broth microdilution (EUCAST), 10 isolates; assay type: cell-based
Method: (§1) Minimum Inhibitory Concentration (MIC90) versus 100 isolates of Escherichia coli and Klebsiella pneumonia were determined. The Minimum Inhibitory Concentration at which 90% of the isolates (strains) are inhibited (MIC90) were measured by broth microdilution in line with EUCAST susceptibility testing standards (www.eucast.org). Bacterial inocula were prepared at ca 1×10^6 CFU/mL by diluting 100-fold a 0.5 McFarland suspension. Antibacterial panels containing 50 μl of antibacterial solutions at 2× the final concentrations were diluted 2-fold with 50 μl of inoculum to give a final inoculum of ca 5×10^5 CFU/ml and desired test concentrations of antibacterial agents (0.03-64 μg/mL). The plates were incubated according to the guidelines of the Clinical and Laboratory Standards Institute (Clinical and Laboratory Standards Institute. Methods for Dilution Antimicrobial Susceptibility Tests for Bacteria That Grow Aerobically; Approved Standard-Eleventh Edition, CLSI document […], 11 Jan. 2018). The MIC90 (μg/ml) is the MIC value at which greater than or equal to 90% of the isolates (strains) within a test population are inhibited. Minimum Inhibitory Concentrations (MICs) versus Proteus spp. and Providencia spp. were determined for compound (I) and comparative compound (III) using the methodology outlined above for the 100 isolates of Escherichia coli and Klebsiella pneumonia.

[3] = system: Providencia spp. (10 isolates); assay: MIC by broth microdilution (EUCAST), 10 isolates; assay type: cell-based
Method: as §1

[4] = Volume of distribution (Vss) from mouse plasma profiles; assay type: in vivo; settings: mice, 5 mg/kg IV bolus, 2 compartment model
Method: The volume of distribution (Vss) of compound (I) and comparative compounds (II) and (III) was determined from analysis of plasma concentration time profiles obtained from rodent species (mice), following 5 mg/kg IV bolus administration respectively. The volume of distribution was obtained by analysing the rodent plasma profiles for compound (I) and comparative compounds (II) and (III) using a 2 compartment IV bolus model in PK Solver (Excel). The volume of distribution data for compound (I) and comparative compound (II) was collected in separate experiments carried out on different days, and compared in Table 6.

[5] = system: Klebsiella pneumoniae (NCTC 13438); assay: MIC by broth microdilution (CLSI); assay type: cell-based; settings: NCTC13438, planktonic bacteria, 20-24 hour incubation
Method: (§2) Minimum Inhibitory Concentrations (MICs) versus Escherichia coli (NCTC 13441) and Klebsiella pneumoniae (NCTC 13438) (planktonic bacteria) were determined by the broth microdilution procedure in line with the guidelines of the Clinical and Laboratory Standards Institute (Clinical and Laboratory Standards Institute. Methods for Dilution Antimicrobial Susceptibility Tests for Bacteria That Grow Aerobically, Approved Standard-Eleventh Edition, CLSI document M07, 11 Jan. 2018). The broth dilution method involved a two-fold serial dilution of compounds in 96-well microtitre plates, giving a final concentration range of 0.39-200 μM and a maximum final concentration of 2% DMSO. The bacterial strains tested were Escherichia coli (NCTC 13441) and Klebsiella pneumoniae (NCTC 13438). Strains were grown in cation-adjusted Müller-Hinton broth or on Luria Bertani agar at 37° C. in an ambient atmosphere. The MIC (μM) was determined as the lowest concentration of compound that inhibits growth following a 20-24 hour incubation period.

[6] = system: Escherichia coli (NCTC 13441); assay: MIC by broth microdilution (CLSI); assay type: cell-based; settings: NCTC13441, planktonic bacteria, 20-24 hour incubation
Method: as §2

E. coli UT189 = assay: Further murine urinary tract infection study, intravenous infusion; assay type: in vivo; settings: 96 h
Method: Compound (I) was evaluated in further proof-of-concept studies in murine models for the treatment of a respiratory infection with Gram-negative bacteria of the order Enterobacterales, and a urinary tract infection with Gram-negative bacteria of the order Enterobacterales. Each dot, triangle or square indicator represents a single mouse. LOD refers to the limit of detection of the bacteria. […] Each of the proof-of-concept studies was carried out separately. By vehicle is meant pharmaceutically acceptable excipient or carrier. For the further proof-of-concept study for the treatment of a urinary tract infection with Enterobacterales, female C3H/HeN mice were infected with E. coli UT189. Twenty-four hours after infection (‘pre-treatment’ in FIGS. 6a-c), mice were either treated with a vehicle control (20% hydroxypropyl β cyclodextrin) containing no compound (I), or a vehicle (20% hydroxypropyl β cyclodextrin) containing compound (I), administered by intravenous infusion for 1 hour (QD) with a dose of 20 mg/kg of compound (I). For some mice who received vehicle containing compound (I), an additional 1-hour continuous intravenous infusion was administered 5 hours after the time at which the first administration begun (BID, 5 hrs apart). The once or twice daily administration was continued for three days. For QD, administration took place between 24 to 25 hours, 48 to 49 hours, and 72 to 73 hours after infection, and for BID, administration took place between 24 to 25 hours, 29 to 30 hours, 48 to 49 hours, 53 to 54 hours, 72 to 73 hours and 77 to 78 hours after infection.

[7] = 1 h IV infusion 20 mg/kg BID (5 hrs apart) for three days
[8] = 1 h IV infusion 20 mg/kg QD for three days

SMILES: Cc1cnccc1-c1[nH]c(N)nc1-c1ccc2c(c1)N(C(=O)C(C)(C)N)CCO2 [Compound (I), 2-amino-1-(6-(2-amino-5-(3-methylpyridin-4-yl)-1H-imidazol-4-yl)-2,3-dihydro-4H-benzo[b][1,4]oxazin-4-yl)-2-methylpropan-1-one]
- reduction of bacterial burden in the blood compared to vehicle ([1]; CD-1 mice, single dose IV bolus 20 mg/kg, 9 h from initial infection): 7.43 log
- more efficacious than comparative compound (III), blood ([1]; difference in log reduction, 9 h): 2.5 log
- bacterial burden (CFU) in the blood at end of study ([1]; single dose IV bolus 20 mg/kg, 9 h from initial infection): below the limit of detection (LOD)
- MIC Range [2]: 8 to 32 µg/mL
- MIC Range [3]: 0.5 to 16 µg/mL
- Vd [4]: 19.7 L/kg
- MIC [5]: 1.56 to 3.13 µM (≈ 0.612 to 1.23 µg/mL)
- MIC [6]: ≤ 0.39 µM
- reduction of bacterial burden in the bladder compared to vehicle (E. coli UT189; [7]): 5.84 log
- reduction of bacterial burden in the kidney compared to vehicle (E. coli UT189; [7]): 4.3 log
- reduction of bacterial burden in the urine compared to vehicle (E. coli UT189; [7]): 5.87 log
- reduction of bacterial burden in the bladder compared to vehicle (E. coli UT189; [8]): 5.01 log
- reduction of bacterial burden in the kidney compared to vehicle (E. coli UT189; [8]): 3.17 log
- bacterial burden in the bladder at end of study (E. coli UT189; BID (5 hrs apart)): below the limit of detection (LOD)
- bacterial burden in the kidney at end of study (E. coli UT189; BID (5 hrs apart)): below the limit of detection (LOD)
- bacterial burden in the urine at end of study (E. coli UT189; BID (5 hrs apart)): below the limit of detection (LOD)
- bacterial burden in the bladder at end of study (E. coli UT189; QD): below the limit of detection (LOD)
- bacterial burden in the urine at end of study (E. coli UT189; QD): below the limit of detection (LOD)
- reduction of bacterial burden in the urine compared to vehicle (E. coli UT189; female C3H/HeN mice, 1 h IV infusion 20 mg/kg QD for three days): 4.86 log
